These results are taken from patent US10537525B2, “Methods and materials for delivering agents to liver tissue” (Mayo Foundation for Medical Education and Research, priority 2015, dated 2020).

For series [1] the following is noted: control: unloaded doxorubicin 100 mg into jugular vein; plasma every 15 min for one hour.
Experimental: (§1) The following was performed to assess the use of endoscopic ultrasound-guided portal vein injection of doxorubicin loaded microbeads to achieve increased intrahepatic concentrations of doxorubicin while decreasing systemic doxorubicin exposure.
(§2) Endoscopic ultrasound-guided portal vein injections were administered to 8 anesthetized 35 kg pigs transgastrically using a linear array echoendoscope and a 22 gauge fine-needle aspiration needle. Briefly, an Olympus linear array echoendoscope was inserted perorally to the stomach. The portal vein was identified by location, appearance, and pulse-wave Dopper signature. A 22 gauge fine-needle aspiration needle (Cook Medical) was advanced transgastrically into the portal vein.
(§3) In 4 animals, doxorubicin (100 mg) loaded onto 75-150 micron LC Beads® (Biocompatibles UK LTD) was injected. In 4 animals, saline was injected into the portal vein, and unloaded doxorubicin (100 mg) was injected into the jugular vein. Plasma was collected at baseline and every 15 minutes for one hour. At 1 hour, laparotomy was performed, and liver and heart samples were obtained and frozen. Bone marrow aspirates were obtained at one hour from the right anterior tibia. Doxorubicin concentrations were determined using LC/MS.
Series [2] is described as follows: in vivo. Conditions: pig, intravenous, 100 mg.
Experimental: as §1, §2, §3
Series [3] is described as follows: in vivo. The following applies: male, pig, intravenous, 50 mg.
Experimental: The aim was to determine 7-day safety, toxicity, and drug levels in the survival porcine model of endoscopic ultrasound-guided injections using irinotecan and doxorubicin loaded onto microbeads, as compared with systemic injection.
Sixteen anesthetized 35 kg male pigs were treated with 50 mg of either irinotecan (n=8) or doxorubicin (n=8). […] Within each drug group, half (n=4) were treated with endoscopic ultrasound-guided injections using 75-150 micron LC Beads (Biocompatibles) or endoscopic ultrasound-guided injection of drug not loaded onto microbeads into the IVC, using 22g endoscopic ultrasound needles via a transgastric approach. Each animal received only one drug by one route. Animals were observed twice daily for 7 days for clinical signs of toxicity. Whole blood for cell counts and plasma chemistries were obtained at baseline and at 7 days. […] 7 day drug levels were measured by LC-mass spectometry on plasma, bone marrow, liver and heart.
Series [4] can be described thus: Endoscopic ultrasound-guided portal vein injection of irinotecan loaded microbeads vs jugular vein irinotecan: plasma and tissue concentrations (LC/MS). The class given is in vivo, pigs. Conditions: control: unloaded irinotecan 100 mg into jugular vein; for concentration at 1 h: pig, intravenous. As for the experimental part: Irinotecan and SN-38 (active metabolite) concentrations were determined using LC/MS.

[5] abbreviates: 50 mg, either group (microbeads portal vein or unloaded drug into IVC).

For the compound `COc1cccc2c1C(=O)c1c(O)c3c(c(O)c1C2=O)C[C@@](O)(C(=O)CO)C[C@@H]3O[C@H]1C[C@H](N)[C@H](O)[C@H](C)O1` [doxorubicin, (7S,9S)-7-[(2R,4S,5S,6S)-4-amino-5-hydroxy-6-methyloxan-2-yl]oxy-6,9,11-trihydroxy-9-(2-hydroxyacetyl)-4-methoxy-8,10-dihydro-7H-tetracene-5,12-dione], the “Doxorubicin level, Peak Plasma” value in series [1] was 2041 ng/mL. In addition, the “doxorubicin level in bone marrow at 7 days” value under setting [5] is on record as “no drug was detected”. Also, under setting [5], the “doxorubicin level in plasma at 7 days” value was “no drug was detected”. Besides, the concentration at 1 h was determined as 25 ng/mL in “in vivo [2]” (bone marrow), 4800 ng/g in “in vivo [2]” (heart) and 6930 ng/g in “in vivo [2]” (liver). The concentration at 7 days in “in vivo [3]” (heart) is 138 ng/g; in the series “in vivo [3]” (liver) it was 151 ng/g.

For `CCc1c2c(nc3ccc(OC(=O)N4CCC(N5CCCCC5)CC4)cc13)-c1cc3c(c(=O)n1C2)COC(=O)[C@]3(O)CC` [Irinotecan, (S)-4,11-diethyl-3,4,12,14-tetrahydro-4-hydroxy-3,14-dioxo1H-pyrano[3′,4′:6,7]-indolizino[1,2-b]quinolin-9-yl-[1,4′bipiperidine]-1′-carboxylate], the “Irinotecan level, Peak Plasma” value in series [4] (plasma every 15 min for one hour) amounted to 2762 ng/mL. Besides, the concentration at 1 h in series [4] (bone marrow, at one hour, read-out: Irinotecan level, Bone Marrow) was 1700 ng/mL; in series [4] (skeletal muscle at 1 hour, read-out: Irinotecan level, Muscle) it was 1060 ng/g; in series [4] (liver, at 1 hour, read-out: Irinotecan level, Liver), 3690 ng/g. The “irinotecan level at 7 days” value (50 mg, any samples (plasma, bone marrow, liver, heart), microbeads portal vein or unloaded drug into IVC) is “no detectable”. The “SN-38 (active metabolite of irinotecan) level at 7 days” value (irinotecan 50 mg, any samples (plasma, bone marrow, liver, heart), microbeads portal vein or unloaded drug into IVC) is listed as “no detectable”.
